System: L1210
Test: Cytotoxicity against mouse L1210 cells after 48 hrs by microculture tetrazolium assay
Format: functional, cell-based
Conditions: Mus musculus, L1210, 48 h; read-out: IC50

Structure (SMILES) | IC50 [nM]
COc1cc2c(c3c1c(=O)c1cc4ccccc4cc1n3C)[C@@H](O)[C@@H](OC(C)=O)C(C)(C)O2 (racemic) | 620
COc1ccc(/C=C/C(=O)O[C@@H]2[C@H](O)c3c(cc(OC)c4c(=O)c5cc6ccccc6cc5n(C)c34)OC2(C)C)cc1 (racemic) | 130
COc1cc2c(c3c1c(=O)c1cc4ccccc4cc1n3C)[C@@H](O)[C@@H](OC(=O)/C=C/c1ccc(C(F)(F)F)cc1)C(C)(C)O2 (racemic) | 90
COc1cc2c(c3c1c(=O)c1cc4ccccc4cc1n3C)[C@@H](O)[C@@H](OC(=O)/C=C/c1cccc(Br)c1)C(C)(C)O2 (racemic) | 80
COc1cc2c(c3c1c(=O)c1cc4ccccc4cc1n3C)[C@@H](O)[C@@H](OC(=O)/C=C/c1ccccc1Cl)C(C)(C)O2 (racemic) | 50
COc1cc2c(c3c1c(=O)c1cc4ccccc4cc1n3C)[C@@H](OC(C)=O)[C@@H](OC(=O)/C=C/c1ccc(Cl)c(Cl)c1)C(C)(C)O2 (racemic) | 400
COc1ccc(/C=C/C(=O)O[C@@H]2[C@H](O)c3c(cc(OC)c4c(=O)c5cc6ccccc6cc5n(C)c34)OC2(C)C)cc1OC (racemic) | 1100
COc1ccc(/C=C/C(=O)O[C@@H]2[C@H](OC(C)=O)c3c(cc(OC)c4c(=O)c5cc6ccccc6cc5n(C)c34)OC2(C)C)cc1OC (racemic) | 900
COc1cc2c(c3c1c(=O)c1cc4ccccc4cc1n3C)[C@@H](O)[C@@H](OC(=O)/C=C/c1ccc(Cl)c(Cl)c1)C(C)(C)O2 (racemic) | 35
COc1cc2c(c3c1c(=O)c1cc4ccccc4cc1n3C)[C@@H](OC(C)=O)[C@@H](OC(=O)/C=C/c1ccc(Cl)cc1)C(C)(C)O2 (racemic) | 500
COc1cc2c(c3c1c(=O)c1cc4ccccc4cc1n3C)[C@@H](O)[C@@H](OC(=O)/C=C/c1ccc([N+](=O)[O-])cc1)C(C)(C)O2 (racemic) | 240
COc1cc2c(c3c1c(=O)c1cc4ccccc4cc1n3C)[C@@H](OC(C)=O)[C@@H](OC(=O)/C=C/c1cccc(C(F)(F)F)c1)C(C)(C)O2 (racemic) | 700
COc1cc2c(c3c1c(=O)c1cc4ccccc4cc1n3C)[C@@H](OC(C)=O)[C@@H](OC(=O)/C=C/c1ccccc1Cl)C(C)(C)O2 (racemic) | 600
COc1cc2c(c3c1c(=O)c1cc4ccccc4cc1n3C)[C@@H](OC(C)=O)[C@@H](OC(=O)/C=C/c1ccccc1)C(C)(C)O2 (racemic) | 1100

System: not listed separately
Test: Cytotoxicity against human KB-3-1 cells after 96 hrs by microculture tetrazolium assay
Format: functional, cell-based
Conditions: KB 3-1, 96 h

Structure (SMILES) | IC50 [nM]
COc1cc2c(c3c1c(=O)c1cc4ccccc4cc1n3C)[C@@H](O)[C@@H](OC(C)=O)C(C)(C)O2 (racemic) | 160
COc1ccc(/C=C/C(=O)O[C@@H]2[C@H](O)c3c(cc(OC)c4c(=O)c5cc6ccccc6cc5n(C)c34)OC2(C)C)cc1 (racemic) | 30
COc1cc2c(c3c1c(=O)c1cc4ccccc4cc1n3C)[C@@H](O)[C@@H](OC(=O)/C=C/c1ccc(C(F)(F)F)cc1)C(C)(C)O2 (racemic) | 20
COc1cc2c(c3c1c(=O)c1cc4ccccc4cc1n3C)[C@@H](O)[C@@H](OC(=O)/C=C/c1cccc(Br)c1)C(C)(C)O2 (racemic) | 20
COc1cc2c(c3c1c(=O)c1cc4ccccc4cc1n3C)[C@@H](O)[C@@H](OC(=O)/C=C/c1ccccc1Cl)C(C)(C)O2 (racemic) | 20
COc1cc2c(c3c1c(=O)c1cc4ccccc4cc1n3C)[C@@H](OC(C)=O)[C@@H](OC(=O)/C=C/c1ccc(Cl)c(Cl)c1)C(C)(C)O2 (racemic) | 50
COc1ccc(/C=C/C(=O)O[C@@H]2[C@H](O)c3c(cc(OC)c4c(=O)c5cc6ccccc6cc5n(C)c34)OC2(C)C)cc1OC (racemic) | 80
COc1ccc(/C=C/C(=O)O[C@@H]2[C@H](OC(C)=O)c3c(cc(OC)c4c(=O)c5cc6ccccc6cc5n(C)c34)OC2(C)C)cc1OC (racemic) | 150
COc1cc2c(c3c1c(=O)c1cc4ccccc4cc1n3C)[C@@H](O)[C@@H](OC(=O)/C=C/c1ccc(Cl)c(Cl)c1)C(C)(C)O2 (racemic) | 6
COc1cc2c(c3c1c(=O)c1cc4ccccc4cc1n3C)[C@@H](OC(C)=O)[C@@H](OC(=O)/C=C/c1ccc(Cl)cc1)C(C)(C)O2 (racemic) | 70
COc1cc2c(c3c1c(=O)c1cc4ccccc4cc1n3C)[C@@H](O)[C@@H](OC(=O)/C=C/c1ccc([N+](=O)[O-])cc1)C(C)(C)O2 (racemic) | 30
COc1cc2c(c3c1c(=O)c1cc4ccccc4cc1n3C)[C@@H](OC(C)=O)[C@@H](OC(=O)/C=C/c1cccc(C(F)(F)F)c1)C(C)(C)O2 (racemic) | 60
COc1cc2c(c3c1c(=O)c1cc4ccccc4cc1n3C)[C@@H](OC(C)=O)[C@@H](OC(=O)/C=C/c1ccccc1Cl)C(C)(C)O2 (racemic) | 90
COc1cc2c(c3c1c(=O)c1cc4ccccc4cc1n3C)[C@@H](OC(C)=O)[C@@H](OC(=O)/C=C/c1ccccc1)C(C)(C)O2 (racemic) | 150

System: not listed separately
Test: Binding affinity to pBS plasmid 117 base-pair DNA fragment assessed as half life of DNA alkylation by gel shift assay
Conditions: not given

T1/2 [h] | Structure (SMILES)
0.0833 | COc1cc2c(c3c1c(=O)c1cc4ccccc4cc1n3C)[C@@H](O)[C@@H](OC(C)=O)C(C)(C)O2 (racemic)
> 24 | COc1cc2c(c3c1c(=O)c1cc4ccccc4cc1n3C)[C@@H](OC(C)=O)[C@@H](OC(=O)/C=C/c1ccc(Cl)c(Cl)c1)C(C)(C)O2 (racemic)
1 | COc1cc2c(c3c1c(=O)c1cc4ccccc4cc1n3C)[C@@H](O)[C@@H](OC(=O)/C=C/c1ccc(Cl)c(Cl)c1)C(C)(C)O2 (racemic)
6 | COc1cc2c(c3c1c(=O)c1cc4ccccc4cc1n3C)[C@@H](OC(C)=O)[C@@H](OC(=O)/C=C/c1ccc(Cl)cc1)C(C)(C)O2 (racemic)
1.5 | COc1cc2c(c3c1c(=O)c1cc4ccccc4cc1n3C)[C@@H](OC(C)=O)[C@@H](OC(=O)/C=C/c1ccccc1)C(C)(C)O2 (racemic)

System: MC-38
Test: Antitumor activity against mouse Colon 38 cells xenografted B6D2F1 mouse assessed as inhibition of tumor growth at 2 mg/kg, iv administered twice daily
Format: functional
Conditions: not given

Structure (SMILES) | inhibition in vivo at 2 mg/kg [%]
COc1cc2c(c3c1c(=O)c1cc4ccccc4cc1n3C)[C@@H](O)[C@@H](OC(=O)/C=C/c1ccc(Cl)c(Cl)c1)C(C)(C)O2 (racemic) | 90

System: MC-38
Test: Toxicity in mouse Colon 38 cells xenografted B6D2F1 mouse assessed as inhibition of tumor growth at 4 mg/kg, iv administered twice daily
Format: functional, organism-based
Parameters: dose 4 mg/kg
Conditions: not given

Structure (SMILES) | Activity
COc1cc2c(c3c1c(=O)c1cc4ccccc4cc1n3C)[C@@H](O)[C@@H](OC(=O)/C=C/c1ccc(Cl)c(Cl)c1)C(C)(C)O2 (racemic) | Toxic

System: MC-38
Test: Antitumor activity against mouse Colon 38 cells xenografted B6D2F1 mouse assessed as inhibition of tumor growth at 4 mg/kg, iv administered twice daily
Format: functional
Conditions: not given

Structure (SMILES) | inhibition in vivo at 4 mg/kg [%]
COc1cc2c(c3c1c(=O)c1cc4ccccc4cc1n3C)[C@@H](OC(C)=O)[C@@H](OC(=O)/C=C/c1ccc(Cl)c(Cl)c1)C(C)(C)O2 (racemic) | 84

Source: ChEMBL document CHEMBL1152763, “Synthesis, cytotoxic activity, and DNA binding properties of antitumor cis-1,2-dihydroxy-1,2-dihydrobenzo[b]acronycine cinnamoyl esters” (Bioorg Med Chem, 2009)
